This note sets out measurements from patent EP2272817A1, “PAI-1 INHIBITOR” (Institute of Medicinal Molecular Design, Inc., priority 2008, dated 2009).

Like-named read-outs stand apart in the source and are kept apart here.

The subject of one assay is Rat AV Shunt Model. Description: Test Example 5: Anti-thrombotic Activity (Rat AV Shunt Model), thrombus weight. Format: in vivo, Crlj: CD (SD) rats. The settings on record: orally for 4 days, male rats, n=5, average ± S.E., vehicle 72.7±2.7. The procedure: AV shunt model using 7-week old male Crlj: CD (SD) rats were prepared, and anti thrombotic activities when the compounds according to the present invention were administered orally were examined.
Required amount of the test compounds were weighed and suspended by adding 0.5 % CMC (carboxymethylcellulose)-Na solution little by little, and the solutions (10 mg/kg or 30 mg/kg solution) were prepared so that their final concentration became 2 mg/ml or 6 mg/ml using a graduated cylinder. 5 ml was prepared for 1 course.
To 7-week old Crlj: CD (SD) male rats, 5 ml/kg of vehicle (0.5 % CMC-Na solution) or 5 ml/kg of the administering solution of the test compound (10 mg/kg or 30 mg/kg) were administered orally for 4 days. The administration on the 4th day was carried out about 1 hour before the following perfusion start.
On the connected part where the silk thread was through, parafilm was wrapped around to avoid blood leakage. Rats were anesthetized with pentobarbital (50 mg/kg; intraperitoneally). Saline was filled in the above catheter, and each of the ends of the catheter was inserted in right carotid artery and […], respectively, and blood was circulated. 30 minutes later, the catheter was pinched with forceps to stop blood flow, and tube parts where the silk thread was through were cut and removed. The silk thread was carefully removed from the tubes, remaining wet weight was weighed after removing the liquid phase with filter paper, and further subtraction of the weight of the silk thread, gave the thrombus weight.
For the thrombus weight in each group, an average vale ± standard error (S.E.) was calculated. For the significance test between the vehicle administered group and the compound according to the present invention administered group, Dunnett's multiple comparison was carried out (significance level 5 %). For the test, the SAS System Release 8.2 (TS2MO) for Windows (Registered Trademark) (SAS Institute Inc.) and its coorperative system EXSAS Ver. 7.10 (Arm Systex Co. Ltd.) were employed.

In assay [1] the target is T1, recombinant human PAI-1 (Homo sapiens, UniProt P05121). In words: biochemical.
Description: To this solution, 6 µl of 80 nM recombinant human PAI-1 (Molecular Innovations, Inc.) solution prepared with Tris buffer was added, and the plate was incubated for 5 minutes at room temperature. Furthermore, 30 µl of 800 IU/ml two-chain tPA (Activity Standard; American diagnostica, inc.) prepared with Tris buffer was added, and the mixed solution was incubated for 15 minutes at room temperature. Then, 30 µl of 400 µM fluorogenic substrate (Pyr-Gly-Arg-MCA; Peptide Institute, Inc.) for tPA prepared with Tris buffer was added and reacted for 30 minutes at room temperature.
50 mM Tris, 150 mM NaCl, 10 µg/ml BSA, 0.01 % Tween80 (SIGMA-ALDRICH Corporation)
A further assay has as its target T2, recombinant rat PAI-1 (Rattus norvegicus, UniProt P20961).
T2 sequence (P20961 24-402): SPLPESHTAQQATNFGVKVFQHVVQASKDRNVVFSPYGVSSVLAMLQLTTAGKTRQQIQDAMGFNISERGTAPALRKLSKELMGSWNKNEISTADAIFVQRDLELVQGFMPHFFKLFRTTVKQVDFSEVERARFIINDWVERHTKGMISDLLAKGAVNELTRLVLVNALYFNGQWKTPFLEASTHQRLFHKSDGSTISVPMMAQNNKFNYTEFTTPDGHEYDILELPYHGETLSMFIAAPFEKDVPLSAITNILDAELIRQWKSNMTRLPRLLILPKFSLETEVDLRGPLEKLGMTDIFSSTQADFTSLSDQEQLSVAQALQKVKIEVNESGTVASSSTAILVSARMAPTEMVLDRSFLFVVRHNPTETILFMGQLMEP
In words: biochemical. The settings on record: read-out: Inhibition Rate of PAI-1 Activity (%).

In assay [2] the target is T1, recombinant human PAI-1. In words: Test Example 2: Human PAI-1 Inhibitory Activity (pH 7.4 HEPES buffer, 10 minutes incubation with two-chain tPA). More on the design: purchased Molecular Innovations, Inc. As to conditions: read-out: Inhibition Rate of PAI-1 Activity (%). Format: biochemical. On the procedure: 0.1 M HEPES, 0.1 M NaCl. 1 mM EDTA. 0.1 % Polyethylene glycol 8,000 (Hampton Research Corporation),
2 mM Dimethyldecylphoshine oxide [Apo-10] (Fluka Corporation)

For assay [3], the target named is T1, recombinant human PAI-1. Description: Test Example 4: Human PAI-1 Inhibitory Activity (amount of PAI-1 bound to plate-coated one-chain tPA, ELISA). Format: biochemical. More on the design: purchased Molecular Innovations, Inc. The settings on record: human PAI-1 bound to tPA, read-out: Inhibition Rate of PAI-1 Activity (%); for inhibition at 0.3 µM: Compound Concentration 0.3µM; for inhibition at 1 µM: Compound Concentration 1µM; for inhibition at 3 µM: Compound Concentration 3µM. Summed up: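 Compound (final 0.1 to 3.0 µM, 0.2% DMSO) preincubated 15 min on ice with recombinant human PAI-1 (50 ng/ml) in phosphate buffer pH 6.6, then 60 min at room temperature on one-chain tPA-coated plates. Bound PAI-1 detected by anti-PAI-1 antibody, AP-labelled secondary and p-nitrophenyl phosphate at 405 nm; quantified against PAI-1 standard curve, inhibition relative to compound-free PAI-1.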

Where [4] appears, read: read-out: Inhibition Rate of PAI-1 Activity (%), Compound Concentration 5µM.
The mark [5] stands for this setting: read-out: Inhibition Rate of PAI-1 Activity (%), Compound Concentration 10µM.

T1 sequence (P05121 24-402): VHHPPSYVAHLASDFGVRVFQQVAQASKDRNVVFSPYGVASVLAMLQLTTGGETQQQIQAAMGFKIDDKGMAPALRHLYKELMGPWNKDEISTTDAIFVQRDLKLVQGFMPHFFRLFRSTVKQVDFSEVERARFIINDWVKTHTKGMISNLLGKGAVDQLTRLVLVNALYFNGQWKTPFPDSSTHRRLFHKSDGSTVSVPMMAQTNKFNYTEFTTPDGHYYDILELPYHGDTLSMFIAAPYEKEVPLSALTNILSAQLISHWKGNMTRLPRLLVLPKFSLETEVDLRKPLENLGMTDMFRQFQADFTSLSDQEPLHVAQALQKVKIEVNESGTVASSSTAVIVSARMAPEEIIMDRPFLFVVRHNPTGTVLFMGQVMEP

As to `CC(C)(C)c1ccc(CN(C(=O)C(=O)O)c2ccc(-c3ccc(OC(F)(F)F)cc3)cc2)cc1` [Compound 129], the “Thrombus Weight” value in the assay with Rat AV Shunt Model (Dose 10 mg/kg/day) came to 56.7 ± 3.8 mg. Further, the inhibition at 5 µM at recombinant human PAI-1 [1] (setting [4]) worked out at 75%. In addition, the inhibition at 10 µM at recombinant human PAI-1 [1] (setting [5]) stood at 95%. For the same compound, at recombinant rat PAI-1, the inhibition at 0.3 µM turned out to be 2%, the inhibition at 1 µM was 14%, the inhibition at 3 µM stood at 46% and the inhibition at 10 µM was determined as 90%. On recombinant human PAI-1 [2], the inhibition at 0.1 µM amounted to 1%, the inhibition at 0.3 µM was determined as 3%, the inhibition at 1 µM was determined as 19% and the inhibition at 3 µM is 86%. For the same compound, on recombinant human PAI-1 [3], the inhibition at 0.3 µM stood at 5%, the inhibition at 1 µM came to 15% and the inhibition at 3 µM worked out at 19%.

`CC(C)(C)c1ccc(COc2ccc(-c3ccc(OC(F)(F)F)cc3)cc2CCC(=O)O)cc1` [Compound 5]: in the assay with Rat AV Shunt Model (Dose 10 mg/kg/day), the “Thrombus Weight” value was 57.5 ± 5.0 mg. Moreover, at recombinant human PAI-1 [1] (read-out: Inhibition Rate of PAI Activity (%), Compound Concentration 5µM), the inhibition at 5 µM turned out to be 87%. The inhibition at 10 µM on recombinant human PAI-1 [1] (read-out: Inhibition Rate of PAI Activity (%), Compound Concentration 10µM) was 95%. In addition, at recombinant rat PAI-1, the inhibition at 0.3 µM turned out to be 5%, the inhibition at 1 µM is 15%, the inhibition at 3 µM worked out at 52% and the inhibition at 10 µM is 93%. Moreover, at recombinant human PAI-1 [2], the inhibition at 0.1 µM was found to be 2%, the inhibition at 0.3 µM was 13%, the inhibition at 1 µM is 34% and the inhibition at 3 µM came out at 90%. Further, at recombinant human PAI-1 [3], the inhibition at 0.3 µM stood at 9%, the inhibition at 1 µM came to 23% and the inhibition at 3 µM worked out at 67%.

`CN(C(=O)C(=O)O)c1cc(-c2ccc(OC(F)(F)F)cc2)ccc1OCc1ccc(C(C)(C)C)cc1` [Compound 17]: the “Thrombus Weight” value with Rat AV Shunt Model (Dose 30 mg/kg/day) was 60.4 ± 3.8 mg.

For the compound `Cc1ccc(N(Cc2ccc(C(C)(C)C)cc2)C(=O)C(=O)O)cc1-c1ccc(OC(F)(F)F)cc1` [Compound 176], the inhibition at 5 µM at recombinant human PAI-1 [1] (setting [4]) was determined as 65%. The inhibition at 10 µM at recombinant human PAI-1 [1] (setting [5]) was determined as 94%. For the same compound, at recombinant human PAI-1 [1] (read-out: Inhibition Rate of PAI-1 Activity (%), Compound Concentration 25µM), the inhibition at 25 µM is 91%. Also, on recombinant rat PAI-1, the inhibition at 0.3 µM amounted to 0%, the inhibition at 1 µM was found to be 23%, the inhibition at 3 µM was determined as 71% and the inhibition at 10 µM was over 99%. Moreover, on recombinant human PAI-1 [2], the inhibition at 0.1 µM turned out to be 0%, the inhibition at 0.3 µM was found to be 10%, the inhibition at 1 µM is 21% and the inhibition at 3 µM came out at 96%. Also, on recombinant human PAI-1 [3], the inhibition at 0.3 µM stood at 9%, the inhibition at 1 µM is 9% and the inhibition at 3 µM stood at 29%.

For `CC(C)(C)c1ccc(CN(C(=O)C(=O)O)c2ccc(Cl)c(-c3ccc(OC(F)(F)F)cc3)c2)cc1` [Compound 186], the inhibition at 5 µM on recombinant human PAI-1 [1] (setting [4]) was found to be 76%. In addition, at recombinant human PAI-1 [1] (setting [5]), the inhibition at 10 µM stood at 91%. Moreover, on recombinant rat PAI-1, the inhibition at 0.3 µM stood at 2%, the inhibition at 1 µM was determined as 27%, the inhibition at 3 µM was 83% and the inhibition at 10 µM amounted to 89%. Further, at recombinant human PAI-1 [2], the inhibition at 0.1 µM is 0%, the inhibition at 0.3 µM turned out to be 9%, the inhibition at 1 µM came to 22% and the inhibition at 3 µM was over 99%. On recombinant human PAI-1 [3], the inhibition at 0.3 µM amounted to 15%, the inhibition at 1 µM was found to be 37% and the inhibition at 3 µM was found to be 53%.

For the compound `CCCCCOc1ccc(-c2ccc(OC(F)(F)F)cc2)cc1N(Cc1ccc(C(C)(C)C)cc1)C(=O)C(=O)O` [Compound 194], on recombinant human PAI-1 [1] (setting [4]), the inhibition at 5 µM amounted to 84%. The inhibition at 10 µM at recombinant human PAI-1 [1] (setting [5]) worked out at 84%. On recombinant rat PAI-1, the inhibition at 0.3 µM is 5%, the inhibition at 1 µM stood at 39%, the inhibition at 3 µM amounted to 98% and the inhibition at 10 µM was over 99%. Also, on recombinant human PAI-1 [2], the inhibition at 0.1 µM was 0%, the inhibition at 0.3 µM was determined as 7%, the inhibition at 1 µM was 63% and the inhibition at 3 µM is 98%. On recombinant human PAI-1 [3], the inhibition at 0.3 µM was found to be 6%, the inhibition at 1 µM is 22% and the inhibition at 3 µM came to 56%.
